What was measured:
[1] = tested on: stress ulcer formation in rats; experiment: WIS: Restraint and Water Immersion Stress-Induced Ulcer Inhibition Test; type: in vivo, rat (male Crj:SD or Slc:SD); settings: 100 mg/kg oral, 10 minutes before 7 h restraint and water immersion (21° C.)
Description: WIS: Restraint and Water Immersion Stress-Induced Ulcer Inhibition Test
The degree of inhibition of the stress ulcer formation is tested.
Male Crj:SD or Slc:SD rats (6 to 7-week-old) were fasted overnight, but allowed free access to water. Each group has 5 to 8 of these rats. The sample compound was dissolved or suspended in an aqueous solution of 0.3% sodium carboxymethylcellulose or 0.05% Tween 80 and then was orally administered (100 mg/10 ml/kg). To a control group, the vehicle was administered. 10 minutes later, the rats were placed in a stress cage and immersed to the level of xipfoid process in a water bath (21° C.) for 7 hours. At the end of the stress, the rats were sacrificed by inhalation of ether or carbon dioxide. Then, the stomach of each was removed, inflated by injecting 10 ml of 5% formalin neutral buffer solution, and immersed in 1% formalin neutral buffer solution for 30 minutes or more to be fixed. The stomach was incised along the greater curvature and then the length of each erosion in the glandular portion was determined under dissecting microscope. The sum of the length of erosions per stomach was defined as ulcer index (UI).
The effect obtained when 100 mg/kg of the sample compound had been administered was expressed as ulcer formation inhibitory rate (%) as follows:
ulcer formation inhibitory rate (%)=(1-(UI in sample group/UI in control

[2] = tested on: isolated gastric fundic gland; experiment: CAP: Acid Secretion Inhibition Test In Vitro ([14C]-aminopyrine uptake); type: cell-based, rabbit (male Japanese White); settings: Oryctolagus cuniculus; final concentration 10^-5 M; histamine 10^-5 M stimulation; read-out: CAP: acid secretion inhibitory rate
Description: CAP: Acid Secretion Inhibition Test In Vitro
The acid secretion inhibitory activity in a cell level is studied. It can also be used for studying the mechanism of the effect.
First, an isolated gastric fundic gland sample was prepared. Namely, a male Japanese White rabbit (2.5 to 3 kg) was anesthetized to death with Nembutal™ and then the abdomen was incised. Immediately thereafter, the stomach was removed and, after its pyloric and cardiac antrum were severed, incised along its greater curvature into two sheets. The gastric contents adhering to the mucosal surface was washed out with ice-cooled PBS (-) and then carefully washed therein. The gastric wall was spread on a cork board with its mucosal surface facing up and the feed and mucus thereon were completely removed with sterile gauze. The mucosa was separated therefrom by a spatula and then collected in ice-cooled PBS (-). After being washed twice with PBS (-), the mucosa was minced into 2-3 mm^3 pieces by scissors. These pieces were further washed twice with a nutrient solution. The nutrient solution comprises 132.4 mM of NaCl, 5.4 mM of KCl, 5 mM of Na2 HPO4. 12H2 O, 1 mM of NaH2 PO4.2H2 O, 1.2 mM of MgSO4, 1 mM of CaCl2, 25 mM of HEPES, 2 mg/ml of glucose, and 1 mg/ml of BSA.
Into 70 ml of the nutrient solution containing 1 mg/ml of collagenase, minced mucosal pieces were dispersed and intensely stirred in a conical flask with a stirrer at 37° C. for 40 to 60 minutes. During this period, 100% O2 was sprayed on the nutrient solution surface and the pH was appropriately measured such that it was immediately adjusted to pH 7.4, when the value was therebelow, with a base. The nutrient solution was added to the reaction solution so as to attain the total amount of about 200 ml. After being filtered through a mesh, the suspension was divisionally introduced into 50 ml centrifuge tubes and left for 15 minutes such that gastric fundic gland was deposited. The supernatant was repeatedly removed by an aspirator, dispersed in the nutrient solution, and then left such that the gastric fundic gland was washed three times. At this time, without using a pipette, the suspension was alternately introduced into two centrifuge tubes so as to effect dispersion. The number of cells was counted under microscope and adjusted to 1.6×10^6 cells/ml.
Then, [^14 C]-aminopyrine uptake test was performed. After an Eppendorf tube was weighed, 10 μl (final concentration: 10^-5 M) of histamine dissolved in the above-mentioned nutrient solution, 10 μl (final concentration: […]) of the test compound dissolved in DMSO, and 10 μl (final concentration: 0.05 μCi/ml) of [^14 C]-aminopyrine diluted with the nutrient solution were introduced therein and then 970 μl of the isolated gastric fundic gland suspension prepared above was added thereto. Subsequently, this mixture was shaken at 37° C. for 40 minutes at 125 cycles/minute. After being centrifuged for 30 seconds, 200 μl of its supernatant was collected into a mini-vial, while the rest was removed by an aspirator. The gland pellet was completely dried as the tube with its lid being opened was kept for one night in a drying oven at 80° C. and then the lid was closed and the weight was determined at room temperature. Then 100 μl of 1N KOH was added thereto and the tube with its lid being closed was treated at 60° C. for 1 to 2 hours so as to dissolve the pellet. Then, the contents thereof were transferred to a mini-vial. Into the mini-vial containing the supernatant or gland pellet, 4 ml of Atomlite™ was added and then the radioactivity was measured by a liquid scintillation counter. Here, after the radioactivity of the gland pellet was corrected by using a sample in which 20 mM of NaSCN was added so as to cancel the hydrogen ion concentration gradient, the integration ratio of aminopyrine specifically trapped by the gland pellet was calculated. This experiment was performed in duplicate.
Here, its principle will be briefly explained. […]

[3] = MTT: Cell Damaging and Protecting Effect Test; type: cell-based, rabbit (male Japanese White); settings: rabbit, gastric corpus mucosa cells, final concentration 10^-4 M, smaller value is better, read-out: MTT: cell damaging rate
Source text: MTT: Cell Damaging and Protecting Effect Test
It is confirmed that there is no toxicity in cell level. Those having a toxicity in cell level are inappropriate as an anti-ulcer drug.
A male Japanese White rabbit (2.5 to 3 kg) was anesthetized to death by Nembutal™ and, immediately thereafter, its stomach was removed. The greater curvature of the stomach was incised so as to remove the stomach contents therefrom. After the mucosal surface was washed with HBSS (Hanks' Balanced Salt Solution), the stomach in ice-cooled HBSS was transferred to a laboratory. Then, after the pyloric antrum was removed, the gastric corpus mucosa was separated by a spatula and then minced into 2 to 3 mm^3 pieces in BME (Basal Medium Eagle). Thereafter, these pieces were shaken at 120 to 130 cycles/minute for 15 minutes at 37° C. in BME 60 ml containing 280 U/ml of dispase and 30 to 50 U/ml of collagenase. Here, the concentration of collagenase was appropriately changed for each lot in view of the state of cells. The pieces were washed twice with EBSS (Earle's Balanced Salt Solution) containing 1 mM of EDTA and then shaken in MEM (Minimum Essential Medium) containing 1 mM of EDTA at 37° C. for 5 minutes. Subsequently, they were shaken in the dispase and collagenase having the same concentrations as those mentioned above for 15 minutes so as to remove the supernatant and then further shaken at 37° C. for 50 to 60 minutes at 120 to 130 cycles/minute. Then, after being washed twice with HBSS, Ham F12 containing 2% of Ultrocer G™ was used to attain the concentration of 1×10^6 cells/ml. Thus formed suspension was dispensed in each well of a 96-well plate by 200 μl. The plate was incubated in the atmosphere composed of 5% CO2 and 95% air at 37° C. for three days so as to attain a confluent state and then subjected to MTT assay.
The sample compound was dissolved in DMSO so as to attain a concentration of 10^-2 M and then diluted with HBSS containing 2% of Ultrocer G™ so as to attain a final concentration of 10^-4 M. To each group, which 8 wells were used for, 10 μl of MTT reagent was added immediately after 100 μl of the medium in each well was exchanged for same volume of the resulting solution of the sample compound. After being incubated in an atmosphere composed of 5% CO2 and 95% air at 37° C. for 4 hours, thus formed solution was centrifuged and then its supernatant was discarded. Subsequently, 100 μl of 100% ethanol was added to the residue so as to dissolve MTT formazan. Then, the absorbance (OD: 570 to 630) was measured by a microplate reader. This method utilizes a phenomenon in which MTT is changed to MTT formazan only by mitochondria of living cells so as to change color.
The cell damaging or cell protecting effect of the sample compound at the final concentration of 10^-4 M was expressed as cell damaging rate (%) as follows:
cell damaging rate (%)=(1-(absorbance in sample group/absorbance in control
Accordingly, the smaller value is better in the cell damaging rate.

CCN(CC)CCNC(=O)c1ccccc1OC/C=C(\C)CCC=C(C)C [Example 2]
WIS: ulcer formation inhibitory rate [1]: 82%
inhibition at 10 µM [2]: 99.9%
cytotoxicity at 4 h, 100 µM [3]: 28%

CCN(CC)CCNC(=O)c1ccc(OCC=C(C)C)cc1 [Example 3]
WIS: ulcer formation inhibitory rate [1]: 88%
inhibition at 10 µM [2]: 70.8%
cytotoxicity at 4 h, 100 µM [3]: 1%

CCN(CC)CCNC(=O)c1ccc(OC/C=C(/C)CCC=C(C)C)cc1 [Example 5]
WIS: ulcer formation inhibitory rate [1]: 90%
inhibition at 10 µM [2]: 109%
cytotoxicity at 4 h, 100 µM [3]: 30%

CCC(C)N(CCNC(=O)c1ccc(OC/C=C(\C)CCC=C(C)C)cc1)C(C)CC (centres unmarked) [Example 8]
WIS: ulcer formation inhibitory rate [1]: 58%
inhibition at 10 µM [2]: 99.9%
cytotoxicity at 4 h, 100 µM [3]: 38%

CC(C)=CCC/C(C)=C/COc1ccccc1C(=O)NCCN(C)C [Example 13]
WIS: ulcer formation inhibitory rate [1]: 75%
inhibition at 10 µM [2]: 96.6%
cytotoxicity at 4 h, 100 µM [3]: 19%

CCN(CC)CCNC(=O)c1ccc(OC/C=C(\C)CCC=C(C)C)cc1OC/C=C(\C)CCC=C(C)C [Example 15]
WIS: ulcer formation inhibitory rate [1]: 92%
inhibition at 10 µM [2]: 96.5%
cytotoxicity at 4 h, 100 µM [3]: 44%

CCN(CC)CCNC(=O)c1ccc(OCC=C(C)C)cc1OCC=C(C)C [Example 20]
WIS: ulcer formation inhibitory rate [1]: 67%
inhibition at 10 µM [2]: 100%
cytotoxicity at 4 h, 100 µM [3]: 28%

CCN(CC)CCNC(=O)c1cc(OCC=C(C)C)ccc1OCC=C(C)C [Example 21]
WIS: ulcer formation inhibitory rate [1]: 77%
inhibition at 10 µM [2]: 100%
cytotoxicity at 4 h, 100 µM [3]: 36%

CCN(CC)CCNC(=O)c1ccc(OCC=C(C)C)c(OCC=C(C)C)c1 [Example 22]
WIS: ulcer formation inhibitory rate [1]: 81%
inhibition at 10 µM [2]: 99.8%
cytotoxicity at 4 h, 100 µM [3]: 16%

CCN(CC)CCNC(=O)c1ccccc1SC/C=C(\C)CCC=C(C)C [Example 25]
WIS: ulcer formation inhibitory rate [1]: 82%
inhibition at 10 µM [2]: 96.1%
cytotoxicity at 4 h, 100 µM [3]: 19%

CC(C)=CCC/C(C)=C/CN(C/C=C(\C)CCC=C(C)C)c1ccc(C(=O)NCCN(C(C)C)C(C)C)cc1 [Example 27]
WIS: ulcer formation inhibitory rate [1]: 45%
inhibition at 10 µM [2]: 38.5%
cytotoxicity at 4 h, 100 µM [3]: 39%

CCN(CC)CCNC(=O)c1ccc(OC)c(OC/C=C(\C)CCC=C(C)C)c1 [Example 29]
WIS: ulcer formation inhibitory rate [1]: 81%
inhibition at 10 µM [2]: 100%
cytotoxicity at 4 h, 100 µM [3]: 49%

CCN(CC)CCNC(=O)c1cccc(OC)c1OC/C=C(\C)CCC=C(C)C [Example 31]
WIS: ulcer formation inhibitory rate [1]: 73%
inhibition at 10 µM [2]: 100%
cytotoxicity at 4 h, 100 µM [3]: 17%

CCN(CC)CCNC(=O)c1ccc(OC)cc1OC/C=C(\C)CCC=C(C)C [Example 32]
WIS: ulcer formation inhibitory rate [1]: 73%
inhibition at 10 µM [2]: 100%
cytotoxicity at 4 h, 100 µM [3]: 28%

CCN(CC)CCNC(=O)c1cc(OC)ccc1OC/C=C(\C)CCC=C(C)C [Example 33]
WIS: ulcer formation inhibitory rate [1]: 67%
inhibition at 10 µM [2]: 100%
cytotoxicity at 4 h, 100 µM [3]: 26%

CCN(CC)CCNC(=O)c1cc(F)ccc1OC/C=C(\C)CCC=C(C)C [Example 35]
WIS: ulcer formation inhibitory rate [1]: 81%
inhibition at 10 µM [2]: 105%
cytotoxicity at 4 h, 100 µM [3]: 25%

CC(C)N(CCNC(=O)c1ccc2c(c1)OCO2)C(C)C [Example 58]
WIS: ulcer formation inhibitory rate [1]: 96%
cytotoxicity at 4 h, 100 µM [3]: 29%

CC(C)N(CCNC(=O)c1cc(C(C)(C)C)cc(C(C)(C)C)c1)C(C)C [Example 65]
WIS: ulcer formation inhibitory rate [1]: 86%
cytotoxicity at 4 h, 100 µM [3]: 5%

CC(C)N(CCNC(=O)c1ccc(C(=O)NC(C)(C)C)cc1)C(C)C [Example 67]
WIS: ulcer formation inhibitory rate [1]: 77%
cytotoxicity at 4 h, 100 µM [3]: -35%

CC(C)N(CCNC(=O)c1ccc(NC(C)(C)C)cc1)C(C)C [Example 68]
WIS: ulcer formation inhibitory rate [1]: 79%
cytotoxicity at 4 h, 100 µM [3]: -58%

— US6001880A, “Alkylenediamine derivative, anti-ulcer drug, and antibacterial drug” (Shiseido Co., Ltd., priority 1997, dated 1999)
